Experimental data: US20230322769A1, “HETEROAROMATIC RING COMPOUND AS RET KINASE INHIBITOR, AND PREPARATION AND USE THEREOF” (JIANGSU CHIA TAI FENGHAI PHARMACEUTICAL CO., LTD., priority 2020, published 2023)
pIC50: −log10 of the molar value. Read-outs that look alike come from different tables or passages of the source.

How the values were obtained:
CCDC6-RET [1] = target: CCDC6-RET (Homo sapiens (Human), UniProt P07949+Q16204); assay: HTRF kinase activity assay, CCDC6-RET; type: biochemical; settings: 1 μM ATP
RET wild type (RET WT) = RET wild type (RET WT) (Homo sapiens (Human), UniProt P07949); assay: HTRF kinase activity assay, RET wild type; type: biochemical; settings: 1 μM ATP
RET (M918T) = RET (M918T) (Homo sapiens (Human), UniProt P07949, M918T); assay: HTRF kinase activity assay, RET (M918T); type: biochemical; settings: 10 μM ATP
KDR (VEGFR2) = KDR (VEGFR2) (Homo sapiens (Human), UniProt P35968); assay: HTRF kinase activity assay, KDR; type: biochemical; settings: 20 μM ATP
RET (V804M) = RET (V804M) (Homo sapiens (Human), UniProt P07949, V804M); assay: HTRF kinase activity assay, RET (V804M); type: biochemical; settings: 10 μM ATP
Ba/F3 KIF5B-RET cells = assay: Ba/F3 KIF5B-RET cell inhibition (CellTiter-Glo); type: cell-based; settings: Mus musculus, BaF3, 72 h
Method: (§1) Activity Experiment 3: Inhibition of Ba/F3 KIF5B-RET Cells by Prepared Compounds Ba/F3 KIF5B-RET, Ba/F3KIF5B-RET-V804M, Ba/F3 RET-M918T and Ba/F3 KIF5B-RET-G810R cells growing in log phase were harvested and counted using a […]. The cell viability was determined by the trypan blue exclusion method, and the cell viability was kept over 90%. The cell concentration was adjusted, and 90 μL of the cell suspension was added to a 96-well plate. The cells in the 96-well plate were incubated overnight at 37° C. with 5% CO2 and 95% humidity. Corresponding gradient concentrations of drug solutions (the maximum concentration was 1000 nM) were added to the 96-well plate inoculated with cells at 10 μL/well. Triplicate wells were set per drug concentration, and the final concentration of DMSO was 0.1%. The drug-treated cells in the 96-well plate were incubated for another 72 h at 37° C. with 5% CO2 and 95% humidity. After the drug treatment was completed, 100 μL of CellTiter-Glo reagent was added to each well. The cell plate was shaken on an orbital shaker for 5 min to lyse the cells and then let stand at room temperature for 20 min to stabilize the luminescence signals, and then the luminescence values were read. The data were analyzed using the GraphPad Prism 5.0 software. Dose-response curves were fit to the data using nonlinear S-curve regression, and IC50 was calculated from the curves.

Ba/F3 RET-M918T cells = assay: Ba/F3 RET-M918T cell inhibition (CellTiter-Glo); type: cell-based; settings: Mus musculus, BaF3, 72 h
Method: as §1

[2] = system: Ba/F3 KIF5B-RET-G810R cells; assay: Ba/F3 KIF5B-RET-G810R cell inhibition (CellTiter-Glo); type: cell-based; settings: Mus musculus, BaF3, 72 h, maximum concentration 1000 nM
Method: as §1

[3] = system: Ba/F3 KIF5B-RET-V804M cells; assay: Ba/F3 KIF5B-RET-V804M cell inhibition (CellTiter-Glo); type: cell-based; settings: Mus musculus, BaF3, 72 h
Method: as §1

hERG potassium channel [4] = target: T1, hERG potassium channel (Homo sapiens (Human), UniProt Q12809); assay: Inhibition of hERG potassium channel, whole-cell patch clamp in HEK293 cells
[5] = Metabolic stability in human liver microsomes
CCDC6-RET [6] = target: CCDC6-RET (Homo sapiens (Human), UniProt P07949); assay: HTRF kinase activity assay, CCDC6-RET; type: biochemical; settings: 1 μM ATP
hERG potassium channel [7] = target: T1, hERG potassium channel
in vitro = settings: human, microsomes; for microsomal CLint at 1 µM: CLint (μL/min/mg); for half-life at 1 µM: T1/2 (min)
[8] = read-out: IC50 for inhibition of hERG potassium channel, HEK293 cells stably expressing hERG, patch clamp
[9] = CLint (μL/min/mg), human liver microsomes, NADPH, Table 3
[10] = T1/2 (min), human liver microsomes, NADPH, Table 3

Sequence of RET (V804M) (P07949 29-1114 V804M): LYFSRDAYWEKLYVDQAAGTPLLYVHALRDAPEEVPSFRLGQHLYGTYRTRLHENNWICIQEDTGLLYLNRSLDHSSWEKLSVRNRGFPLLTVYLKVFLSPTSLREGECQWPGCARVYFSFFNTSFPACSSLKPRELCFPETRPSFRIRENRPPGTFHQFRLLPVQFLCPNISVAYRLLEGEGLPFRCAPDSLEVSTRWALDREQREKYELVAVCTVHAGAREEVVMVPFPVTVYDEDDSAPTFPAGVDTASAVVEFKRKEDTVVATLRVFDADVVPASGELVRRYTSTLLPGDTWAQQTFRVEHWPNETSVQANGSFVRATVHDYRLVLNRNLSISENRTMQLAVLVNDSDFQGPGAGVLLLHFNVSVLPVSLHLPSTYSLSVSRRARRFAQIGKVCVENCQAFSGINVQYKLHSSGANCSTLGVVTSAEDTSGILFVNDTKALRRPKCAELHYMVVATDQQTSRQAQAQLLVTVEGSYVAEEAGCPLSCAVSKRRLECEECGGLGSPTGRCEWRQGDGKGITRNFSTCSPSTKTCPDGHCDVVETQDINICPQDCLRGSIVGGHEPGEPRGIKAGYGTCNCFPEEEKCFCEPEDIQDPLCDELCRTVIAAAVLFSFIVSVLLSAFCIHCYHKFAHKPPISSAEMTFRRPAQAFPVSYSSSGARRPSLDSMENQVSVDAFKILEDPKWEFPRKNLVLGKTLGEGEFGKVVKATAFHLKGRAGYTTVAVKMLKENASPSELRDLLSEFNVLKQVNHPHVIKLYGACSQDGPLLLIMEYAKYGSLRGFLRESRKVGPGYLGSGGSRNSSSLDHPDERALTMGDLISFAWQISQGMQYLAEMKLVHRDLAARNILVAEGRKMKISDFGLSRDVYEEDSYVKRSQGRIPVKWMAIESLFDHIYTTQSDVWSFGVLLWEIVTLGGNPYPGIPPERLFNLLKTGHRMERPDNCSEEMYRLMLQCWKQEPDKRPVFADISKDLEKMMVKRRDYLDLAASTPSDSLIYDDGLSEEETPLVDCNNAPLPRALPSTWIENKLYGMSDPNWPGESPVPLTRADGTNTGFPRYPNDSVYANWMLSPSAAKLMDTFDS
Sequence of RET (M918T) (P07949 29-1114 M918T): as the sequence (P07949 29-1114 V804M) above, with M776V, M890T counted along it
Sequence of KDR (VEGFR2) (P35968 20-1356): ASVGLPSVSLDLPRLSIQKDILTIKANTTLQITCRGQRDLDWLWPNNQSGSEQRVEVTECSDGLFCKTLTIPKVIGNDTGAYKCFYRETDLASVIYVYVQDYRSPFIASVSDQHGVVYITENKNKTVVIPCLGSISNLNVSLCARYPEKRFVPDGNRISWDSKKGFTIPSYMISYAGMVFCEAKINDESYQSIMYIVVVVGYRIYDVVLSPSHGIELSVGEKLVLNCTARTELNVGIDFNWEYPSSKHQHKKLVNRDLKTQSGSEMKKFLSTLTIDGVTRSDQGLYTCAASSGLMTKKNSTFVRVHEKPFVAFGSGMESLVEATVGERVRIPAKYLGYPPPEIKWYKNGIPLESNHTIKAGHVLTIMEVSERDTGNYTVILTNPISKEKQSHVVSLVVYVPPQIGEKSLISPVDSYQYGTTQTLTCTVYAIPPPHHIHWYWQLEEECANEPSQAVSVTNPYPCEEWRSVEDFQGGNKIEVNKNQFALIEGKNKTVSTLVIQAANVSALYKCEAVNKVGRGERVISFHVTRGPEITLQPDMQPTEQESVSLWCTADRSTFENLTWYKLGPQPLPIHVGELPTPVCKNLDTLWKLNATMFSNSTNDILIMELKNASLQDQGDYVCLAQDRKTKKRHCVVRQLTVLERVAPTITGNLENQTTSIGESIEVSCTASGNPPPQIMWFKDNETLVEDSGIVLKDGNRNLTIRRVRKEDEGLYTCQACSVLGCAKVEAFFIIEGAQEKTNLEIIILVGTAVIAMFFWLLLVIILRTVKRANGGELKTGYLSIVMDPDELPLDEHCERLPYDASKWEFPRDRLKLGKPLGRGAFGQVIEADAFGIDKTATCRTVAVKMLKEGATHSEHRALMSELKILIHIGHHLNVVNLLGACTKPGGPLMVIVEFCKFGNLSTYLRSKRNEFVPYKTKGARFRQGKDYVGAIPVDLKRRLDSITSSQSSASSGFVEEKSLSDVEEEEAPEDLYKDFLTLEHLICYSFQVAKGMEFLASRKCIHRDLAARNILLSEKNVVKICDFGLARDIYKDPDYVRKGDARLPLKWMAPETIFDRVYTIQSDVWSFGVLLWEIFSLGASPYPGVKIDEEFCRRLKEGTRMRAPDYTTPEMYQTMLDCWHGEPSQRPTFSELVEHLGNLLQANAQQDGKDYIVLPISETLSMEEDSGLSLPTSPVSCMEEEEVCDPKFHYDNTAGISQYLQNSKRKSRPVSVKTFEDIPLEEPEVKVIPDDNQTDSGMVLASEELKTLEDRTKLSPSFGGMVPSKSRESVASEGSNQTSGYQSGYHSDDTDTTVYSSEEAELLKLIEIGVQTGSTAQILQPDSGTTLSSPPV
Sequence of CCDC6-RET (Homo sapiens (Human), UniProt P07949+Q16204) (P07949 other isoform, or with tags, fused parts or gaps): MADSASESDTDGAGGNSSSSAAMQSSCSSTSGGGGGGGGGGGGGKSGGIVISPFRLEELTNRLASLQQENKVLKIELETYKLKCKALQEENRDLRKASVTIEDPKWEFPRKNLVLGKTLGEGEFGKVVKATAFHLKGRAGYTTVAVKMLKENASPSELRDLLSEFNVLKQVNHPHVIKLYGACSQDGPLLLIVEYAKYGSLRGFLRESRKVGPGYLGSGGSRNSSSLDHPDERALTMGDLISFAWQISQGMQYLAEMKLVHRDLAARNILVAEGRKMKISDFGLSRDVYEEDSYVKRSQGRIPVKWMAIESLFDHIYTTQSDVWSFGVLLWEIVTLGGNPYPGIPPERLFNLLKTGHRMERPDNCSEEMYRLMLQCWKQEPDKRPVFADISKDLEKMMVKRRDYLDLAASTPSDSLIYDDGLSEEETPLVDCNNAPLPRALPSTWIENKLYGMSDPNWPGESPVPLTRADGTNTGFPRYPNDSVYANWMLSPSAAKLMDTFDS
Sequence of CCDC6-RET (Homo sapiens (Human), UniProt P07949) (P07949 other isoform, or with tags, fused parts or gaps): as above
T1 sequence (Q12809 whole entry): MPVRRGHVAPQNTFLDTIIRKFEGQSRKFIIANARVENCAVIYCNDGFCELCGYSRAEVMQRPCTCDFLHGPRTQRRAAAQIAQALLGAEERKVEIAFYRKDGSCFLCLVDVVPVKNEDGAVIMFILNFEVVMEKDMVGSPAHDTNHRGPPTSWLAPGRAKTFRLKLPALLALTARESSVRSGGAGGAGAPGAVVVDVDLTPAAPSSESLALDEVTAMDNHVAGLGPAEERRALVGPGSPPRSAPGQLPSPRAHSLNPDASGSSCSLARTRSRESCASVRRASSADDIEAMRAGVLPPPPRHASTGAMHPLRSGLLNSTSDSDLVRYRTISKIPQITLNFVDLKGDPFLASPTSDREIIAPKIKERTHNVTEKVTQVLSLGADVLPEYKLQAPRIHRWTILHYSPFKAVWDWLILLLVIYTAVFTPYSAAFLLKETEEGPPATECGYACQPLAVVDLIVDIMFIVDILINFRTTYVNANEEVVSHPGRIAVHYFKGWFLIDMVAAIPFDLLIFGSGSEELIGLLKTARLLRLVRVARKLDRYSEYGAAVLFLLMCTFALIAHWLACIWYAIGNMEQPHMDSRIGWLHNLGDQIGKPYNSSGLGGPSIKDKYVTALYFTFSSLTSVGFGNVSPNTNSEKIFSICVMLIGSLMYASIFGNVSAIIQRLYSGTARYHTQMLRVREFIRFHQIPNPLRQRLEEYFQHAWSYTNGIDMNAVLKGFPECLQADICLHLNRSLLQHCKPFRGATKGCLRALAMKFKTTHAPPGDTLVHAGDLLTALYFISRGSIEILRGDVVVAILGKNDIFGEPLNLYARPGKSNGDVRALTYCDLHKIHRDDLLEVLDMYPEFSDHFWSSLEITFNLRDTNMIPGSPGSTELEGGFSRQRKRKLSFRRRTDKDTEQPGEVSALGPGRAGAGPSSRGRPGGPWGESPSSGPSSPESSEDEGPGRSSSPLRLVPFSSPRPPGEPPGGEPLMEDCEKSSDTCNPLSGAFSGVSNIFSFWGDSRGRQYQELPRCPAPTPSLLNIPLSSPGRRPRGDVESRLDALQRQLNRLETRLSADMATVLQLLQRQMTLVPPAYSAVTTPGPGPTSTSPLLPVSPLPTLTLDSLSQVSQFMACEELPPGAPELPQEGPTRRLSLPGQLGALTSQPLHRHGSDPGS
Sequence of RET wild type (RET WT) (P07949 29-1114): as the sequence (P07949 29-1114 V804M) above, with M776V counted along it

Compound | pIC50 (RET wild type (RET WT)) | pIC50 (RET (M918T)) | pIC50 (KDR (VEGFR2)) | pIC50 (RET (V804M)) | pIC50 (Ba/F3 KIF5B-RET cells) | also measured
COc1ccc(CN(C)C2CCCCC2N(C)c2ccc(-c3cc(-c4cnn(C)c4)cn4ncc(C#N)c34)cn2)cn1 (stereo not shown) [Compound 34] | 7.45 | 7.01 | 6.51 | 6.68 | – | pIC50 (CCDC6-RET [1]): 7.15
COc1ccc(CN2C3CC2CN(c2ccc(-c4cc(N5CC(C)(O)C5)cn5ncc(C#N)c45)cn2)C3)cn1 [Compound 86] | – | – | – | – | 8.44 | –
COc1ccc(CN2CCCN(c3ccc(-c4cc(-c5cnn(C)c5)cn5ncc(C#N)c45)cn3)CC2)cn1 [Compound 32] | 8.68 | 8.76 | 7.41 | 8.32 | – | pIC50 (CCDC6-RET [1]): 8.50
CO[C@]1(C(=O)N[C@@H](C)c2ccc(-n3cc(F)cn3)nc2)CC[C@H](c2nc(C)cc(Nc3cc(C)[nH]n3)n2)CC1 [BLU-667, reference compound] | – | – | – | – | 7.95 | pIC50 (Ba/F3 RET-M918T cells): 7.89; pIC50 [2]: 6.32; pIC50 [3]: 7.96
COc1ccc(CN2C3CC2CN(c2ccc(-c4cc(N5CCC(O)C5)cn5ncc(C#N)c45)cn2)C3)cn1 (stereo not shown) [Compound 67] | 9.10 | 9.12 | 7.61 | 8.96 | 8.45 | –
COc1ccc(CN2C3CC2CN(c2ccc(-c4cc(N5CCCC(O)C5)cn5ncc(C#N)c45)cn2)C3)cn1 (stereo not shown) [Compound 82] | – | – | – | – | 7.77 | –
COc1ccc(CN2C3CC2CN(c2ccc(-c4cc(N5CCOCC5)cn5ncc(C#N)c45)cn2)C3)cn1 [Compound 65] | – | – | – | – | 8.09 | pIC50 (Ba/F3 RET-M918T cells): 7.62; pIC50 (hERG potassium channel [4]; [8]): 5.57; pIC50 [3]: 7.23; microsomal CLint at 1 µM [5, 9]: 44.8 µL/min/mg; half-life at 1 µM [5, 10]: 30.9 min
[2H]C([2H])([2H])N1CCN(c2cc(-c3ccc(N4CC5CC(C4)[N+]5([O-])Cc4ccc(OC)nc4)nc3)c3c(C#N)cnn3c2)CC1 (stereo not shown) [Compound 99] | 7.25 | – | – | – | – | –
COc1ccc(CN2C3CC2CN(c2ccc(-c4cc(NCC(C)(C)O)cn5ncc(C#N)c45)cn2)C3)cn1 [Compound 78] | – | – | – | – | 7.87 | –
COc1ccc(CN2C3CC2CN(c2ccc(-c4cc(N5CCC(OC)C5)cn5ncc(C#N)c45)cn2)C3)cn1 (stereo not shown) [Compound 68] | 8.89 | 8.07 | 7.78 | 8.27 | 8.70 | pIC50 (CCDC6-RET [6]): 8.60
COc1ccc(CN2C3CC2CN(c2ccc(-c4cc(N5CC6CC(C5)N6C)cn5ncc(C#N)c45)cn2)C3)cn1 [Compound 17] | – | – | – | – | – | pIC50 (hERG potassium channel [7]): 5.88; microsomal CLint at 1 µM (in vitro): 36.4 µL/min/mg; half-life at 1 µM (in vitro): 38.1 min
COc1ccc(CN2C3CC2CN(c2ccc(-c4cc(N5CCN(C)C(=O)C5)cn5ncc(C#N)c45)cn2)C3)cn1 [Compound 89] | – | – | – | – | 7.62 | pIC50 (Ba/F3 RET-M918T cells): 7.94; pIC50 (hERG potassium channel [4]; [8]): 5.14; pIC50 [2]: 6.02; pIC50 [3]: 7.02
COc1ccc(CN2C3CC2CN(c2ccc(-c4cc(N5CCN(C)CC5)cn5ncc(C#N)c45)cn2)C3)cn1 [Compound 87] | – | – | – | – | 7.93 | pIC50 (Ba/F3 RET-M918T cells): 7.87; pIC50 (hERG potassium channel [4]; [8]): 5.67; pIC50 [2]: 6.37; pIC50 [3]: 6.94; microsomal CLint at 1 µM [5, 9]: 35.8 µL/min/mg; half-life at 1 µM [5, 10]: 38.7 min
COc1ccc(CN2C3CC2CN(c2ccc(-c4cc(C#CC(C)(C)O)cn5ncc(C#N)c45)cn2)C3)cn1 [Compound 66] | 8.78 | 8.69 | 6.91 | 8.11 | 8.04 | pIC50 (CCDC6-RET [6]): 8.95
COc1ccc(CN2C3CC2CN(c2ccc(-c4cc(N5CCOCC5=O)cn5ncc(C#N)c45)cn2)C3)cn1 [Compound 69] | 7.73 | 7.65 | 6.12 | 7.41 | – | pIC50 (CCDC6-RET [6]): 7.92
COc1ccc(CN2CCC(Nc3ccc(-c4cc(-c5cnn(C)c5)cn5ncc(C#N)c45)cn3)CC2)cn1 [Compound 21] | 7.35 | 7.10 | 6.96 | 6.73 | – | pIC50 (CCDC6-RET [1]): 7.22
COc1ccc(CN2C3CC2CN(c2ccc(-c4cc(-c5cnn6c5CCC6)cn5ncc(C#N)c45)cn2)C3)cn1 [Compound 51] | 8.34 | 8.41 | 7.28 | 8.15 | – | pIC50 (CCDC6-RET [1]): 8.67
[2H]C([2H])([2H])[N+]1([O-])CCN(c2cc(-c3ccc(N4CC5CC(C4)N5Cc4ccc(OC)nc4)nc3)c3c(C#N)cnn3c2)CC1 [Compound 101] | 8.60 | – | 6.67 | – | – | –
COc1ccc(CN2C3CC2CN(c2ccc(-c4cc(N5CCNCC5)cn5ncc(C#N)c45)cn2)C3)cn1 [Compound 96] | – | – | – | – | 7.38 | pIC50 (Ba/F3 RET-M918T cells): 7.35; pIC50 [3]: 6.71
COc1ccc(CN2C3CC2CN(c2ccc(-c4cc(N5CCC(C)(O)C5)cn5ncc(C#N)c45)cn2)C3)cn1 (stereo not shown) [Compound 70] | 8.93 | 8.79 | 7.62 | 9.00 | 9.00 | pIC50 (CCDC6-RET [6]): 8.99; pIC50 (Ba/F3 RET-M918T cells): 8.94; pIC50 (hERG potassium channel [4]): 5.32; pIC50 [2]: 6.71; pIC50 [3]: 7.92; microsomal CLint at 1 µM [5, 9]: 50.6 µL/min/mg; half-life at 1 µM [5, 10]: 27.4 min
COc1ccc(CN2C3CC2CN(c2ccc(-c4cc(-c5cc6n(n5)CCC6)cn5ncc(C#N)c45)cn2)C3)cn1 [Compound 57] | – | – | – | – | – | microsomal CLint at 1 µM (in vitro): 69.8 µL/min/mg; half-life at 1 µM [5, 10]: 19.9 min
COc1ccc(CN2CCN(c3ccc(-c4cc(-c5cc6n(n5)CCC6)cn5ncc(C#N)c45)cn3)CC2)cn1 [Compound 58] | 8.30 | 8.02 | 6.87 | 7.71 | – | –
COc1ccc(CN2C3CC2CN(c2ccc(-c4cc(N5CCP(C)(=O)CC5)cn5ncc(C#N)c45)cn2)C3)cn1 [Compound 20] | – | – | – | – | – | pIC50 (hERG potassium channel [4]; [8]): 4.65; half-life at 1 µM [5]: 231 min; microsomal CLint at 1 µM [5]: 6 µL/min/mg
COc1ccc(CN2C3CC2CN(c2ccc(-c4cc(N5CC6CC(C5)N6)cn5ncc(C#N)c45)cn2)C3)cn1 [Compound 16] | – | – | – | – | – | pIC50 (hERG potassium channel [7]): 5.69; microsomal CLint at 1 µM (in vitro): 8.8 µL/min/mg; half-life at 1 µM (in vitro): 158 min
